# Test results taken from patent US20100298141A1, “SUBSTITUTED PYRIDINE N-OXIDE HERBICIDES” (E. I. DU PONT DE NEMOURS AND COMPANY, priority 2007, published 2010).
# What was measured:
# barnyardgrass = test: Test A pre-/postemergence greenhouse test; assay type: in vivo, Echinochloa crus-galli; conditions: for Barnyardgrass plant response rating: 0 to 100 scale
# In short: (§1)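 Herbicidal effect is a visual injury score given about ten days post-treatment by comparison with untreated controls. Preemergence plots received a directed spray onto sown loam–sand soil; postemergence plants, at the one- to two-leaf stage and 2–10 cm tall, were sprayed at the same time.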
# morningglory [1] = test: Test A pre-/postemergence greenhouse test; assay type: in vivo, Ipomoea spp.; conditions: for Morningglory plant response rating: 0 to 100 scale
# In short: as §1
# blackgrass = test: Test C pre-/postemergence test; assay type: in vivo, Alopecurus myosuroides
# In short: (§2)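 Seeds were planted and treated preemergence with test chemical in a non-phytotoxic solvent mixture containing surfactant. Postemergence applications of the same formulation went onto plants 2 to 18 cm tall (1- to 4-leaf stage). A dash marks no test result.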
# green foxtail = test: Test C pre-/postemergence test; assay type: in vivo, Setaria viridis
# In short: as §2
# Italian ryegrass = test: Test C pre-/postemergence test; assay type: in vivo, Lolium multiflorum
# In short: as §2
# wheat = test: Test C pre-/postemergence test; assay type: in vivo, Triticum aestivum; conditions: for Wheat plant response rating: preemergence, scale 0 (no effect) to 100 (complete control)
# In short: as §2
# cocklebur = test: Test C pre-/postemergence test; assay type: in vivo, Xanthium strumarium
# In short: as §2
# corn = test: Test C pre-/postemergence test; assay type: in vivo, Zea mays
# In short: as §2
# crabgrass = test: Test C pre-/postemergence test; assay type: in vivo, Digitaria sanguinalis
# In short: as §2
# woolly cupgrass = test: Test C pre-/postemergence test; assay type: in vivo, Eriochloa villosa
# In short: as §2
# kochia = test: Test C pre-/postemergence test; assay type: in vivo, Kochia scoparia
# In short: as §2
# morningglory [2] = test: Test C pre-/postemergence test; assay type: in vivo, Ipomoea coccinea
# In short: as §2
# yellow nutsedge = test: Test C pre-/postemergence test; assay type: in vivo, Cyperus esculentus
# In short: as §2
# pigweed = test: Test C pre-/postemergence test; assay type: in vivo, Amaranthus retroflexus
# In short: as §2
# soybean = test: Test C pre-/postemergence test; assay type: in vivo, Glycine max
# In short: as §2
# [3] = test system: common (oilseed) sunflower; test: Test C pre-/postemergence test; assay type: in vivo, Helianthus annuus; conditions: for Sunflower plant response rating: preemergence, scale 0 (no effect) to 100 (complete control)
# In short: as §2
# [4] = Postemergence, 125 g ai/ha, 0 is no effect, 100 is complete control
# [5] = Postemergence, 500 g ai/ha, 0 is no effect, 100 is complete control
# [6] = Preemergence, 125 g ai/ha, 0 no effect, 100 complete control
# [7] = Preemergence, 500 g ai/ha, 0 to 100 scale where 0 is no effect and 100 is complete control
# [8] = 31 g ai/ha, Preemergence, scale 0 to 100
# [9] = 62 g ai/ha, preemergence, scale 0 (no effect) to 100 (complete control)
# [10] = preemergence, 125 g ai/ha, scale 0 (no effect) to 100 (complete control)
smiles,measurement,setting,value
Cn1nc(C(F)(F)F)c(CS(=O)(=O)c2cccc[n+]2[O-])c1OC(F)F [Compound 4],Barnyardgrass plant response rating,barnyardgrass; [4],70
same,Barnyardgrass plant response rating,barnyardgrass; [5],80
same,Barnyardgrass plant response rating,barnyardgrass; [6],70
same,"Plant response rating, Barnyardgrass",barnyardgrass; [7],100
same,Morningglory plant response rating,morningglory [1]; [4],60
same,Morningglory plant response rating,morningglory [1]; [5],70
same,Morningglory plant response rating,morningglory [1]; [6],80
same,"Plant response rating, Morningglory",morningglory [1]; [7],90
same,Blackgrass plant response rating,blackgrass; [8],70
same,Blackgrass plant response rating,blackgrass; [9],80
same,"Plant response rating (0 to 100), Blackgrass","blackgrass; Preemergence, 250 g ai/ha",100
same,Blackgrass plant response rating,blackgrass; [10],95
same,"Foxtail, Green plant response rating",green foxtail; [8],100
same,"Foxtail, Green plant response rating",green foxtail; [9],100
same,"Plant response rating (0 to 100), Foxtail, Green","green foxtail; Preemergence, 250 g ai/ha",100
same,"Foxtail, Green plant response rating",green foxtail; [10],100
same,"Ryegrass, Italian plant response rating",Italian ryegrass; [8],0
same,"Ryegrass, Italian plant response rating",Italian ryegrass; [9],60
same,"Plant response rating (0 to 100), Ryegrass, Italian","Italian ryegrass; Preemergence, 250 g ai/ha",100
same,"Ryegrass, Italian plant response rating",Italian ryegrass; [10],100
same,Wheat plant response rating,wheat; 62 g ai/ha,20
same,"Plant response rating (0 to 100), Wheat","wheat; Preemergence, 250 g ai/ha",50
same,Wheat plant response rating,wheat; 125 g ai/ha,20
same,Cocklebur plant response rating,cocklebur; [8],0
same,Cocklebur plant response rating,cocklebur; [9],0
same,"Plant response rating (0 to 100), Cocklebur","cocklebur; Preemergence, 250 g ai/ha",0
same,Cocklebur plant response rating,cocklebur; [10],0
same,Corn plant response rating,corn; [8],0
same,Corn plant response rating,corn; [9],50
same,"Plant response rating (0 to 100), Corn","corn; Preemergence, 250 g ai/ha",70
same,Corn plant response rating,corn; [10],55
same,"Crabgrass, Large plant response rating",crabgrass; [8],98
same,"Crabgrass, Large plant response rating",crabgrass; [9],100
same,"Plant response rating (0 to 100), Crabgrass, Large","crabgrass; Preemergence, 250 g ai/ha",100
same,"Crabgrass, Large plant response rating",crabgrass; [10],100
same,"Cupgrass, Woolly plant response rating",woolly cupgrass; [8],60
same,"Cupgrass, Woolly plant response rating",woolly cupgrass; [9],98
same,"Plant response rating (0 to 100), Cupgrass, Woolly","woolly cupgrass; Preemergence, 250 g ai/ha",100
same,"Cupgrass, Woolly plant response rating",woolly cupgrass; [10],98
same,Kochia plant response rating,kochia; [8],0
same,Kochia plant response rating,kochia; [9],100
same,"Plant response rating (0 to 100), Kochia","kochia; Preemergence, 250 g ai/ha",100
same,Kochia plant response rating,kochia; [10],100
same,Morningglory plant response rating,morningglory [2]; [8],0
same,Morningglory plant response rating,morningglory [2]; [9],0
same,"Plant response rating (0 to 100), Morningglory","morningglory [2]; Preemergence, 250 g ai/ha",100
same,Morningglory plant response rating,morningglory [2]; [10],85
same,"Nutsedge, Yellow plant response rating",yellow nutsedge; [8],85
same,"Nutsedge, Yellow plant response rating",yellow nutsedge; [9],100
same,"Plant response rating (0 to 100), Nutsedge, Yellow","yellow nutsedge; Preemergence, 250 g ai/ha",100
same,"Nutsedge, Yellow plant response rating",yellow nutsedge; [10],100
same,Pigweed plant response rating,pigweed; [8],100
same,Pigweed plant response rating,pigweed; [9],100
same,"Plant response rating (0 to 100), Pigweed","pigweed; Preemergence, 250 g ai/ha",100
same,Pigweed plant response rating,pigweed; [10],100
same,Soybean plant response rating,soybean; [8],0
same,Soybean plant response rating,soybean; [10],0
same,Sunflower plant response rating,[3]; 62 g ai/ha,10
same,"Plant response rating (0 to 100), Sunflower","[3]; Preemergence, 250 g ai/ha",80
same,Sunflower plant response rating,[3]; 125 g ai/ha,15
